Data taken from the supplement of paper PMC10307832.

Columns and labels:
Test in all cases: relative viability (nuclei count vs DMSO), 5 days (fraction); higher = more cells survive
NCI-H322M = test system: NCI-H322M
Outline: (§1)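 Cells from lung cancer lines were seeded into 1536-well plates and, one day later, dosed by pin tool. Treatments were either a single drug or a fixed dose of an anchor drug with five library-drug doses (not always all listed) in √10 steps. After 5 days, nuclei were stained in a one-step fixation (final 0.05% Triton X-100, 1% formaldehyde, 1 ug/ml Hoechst) and counted on 4× images, and relative viability is the treated-to-vehicle nuclei ratio, as the median of duplicate plates.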

NCI-H1944 = test system: NCI-H1944
Outline: as §1

NCI-H647 = test system: NCI-H647
Outline: as §1

NCI-H3122 = test system: NCI-H3122
Outline: as §1

201T = test system: 201T
Outline: as §1

LXF-289 = test system: LXF-289
Outline: as §1

NCI-H1792 = test system: NCI-H1792
Outline: as §1

NCI-H2228 = test system: NCI-H2228
Outline: as §1

BEN = test system: BEN
Outline: as §1

RERF-LC-KJ = test system: RERF-LC-KJ
Outline: as §1

NCI-H1395 = test system: NCI-H1395
Outline: as §1

LCLC-97TM1 = test system: LCLC-97TM1
Outline: as §1

SK-LU-1 = test system: SK-LU-1
Outline: as §1

HCC-827 = test system: HCC-827
Outline: as §1

NCI-H727 = test system: NCI-H727
Outline: as §1

NCI-H1793 = test system: NCI-H1793
Outline: as §1

CAL-12T = test system: CAL-12T
Outline: as §1

NCI-H1437 = test system: NCI-H1437
Outline: as §1

NCI-H1650 = test system: NCI-H1650
Outline: as §1

NCI-H2405 = test system: NCI-H2405
Outline: as §1

NCI-H2087 = test system: NCI-H2087
Outline: as §1

COc1cc2nccc(Oc3ccc(NC(=O)Nc4cc(C)on4)c(Cl)c3)c2cc1OC [Tivozanib] + CC1(C)CCC(c2ccc(Cl)cc2)=C(CN2CCN(c3ccc(C(=O)NS(=O)(=O)c4ccc(N[C@H](CCN5CCOCC5)CSc5ccccc5)c(S(=O)(=O)C(F)(F)F)c4)cc3)CC2)C1 [Navitoclax] (partner 0.5 µM)
relative viability (NCI-H322M; first compound 0.005 µM): 1.23
relative viability (NCI-H322M; first compound 0.01581 µM): 1.09
relative viability (NCI-H322M; first compound 0.05 µM): 1.28
relative viability (NCI-H322M; first compound 0.1581 µM): 1.22
relative viability (NCI-H322M; first compound 0.5 µM): 1.14
relative viability (NCI-H1944; first compound 0.005 µM): 1.08
relative viability (NCI-H1944; first compound 0.01581 µM): 1.02
relative viability (NCI-H1944; first compound 0.05 µM): 1.05
relative viability (NCI-H1944; first compound 0.1581 µM): 0.891
relative viability (NCI-H1944; first compound 0.5 µM): 1.1
relative viability (NCI-H647; first compound 0.005 µM): 1.12
relative viability (NCI-H647; first compound 0.01581 µM): 1.24
relative viability (NCI-H647; first compound 0.05 µM): 1.21
relative viability (NCI-H647; first compound 0.1581 µM): 1.19
relative viability (NCI-H647; first compound 0.5 µM): 1.03
relative viability (NCI-H3122; first compound 0.005 µM): 1.03
relative viability (NCI-H3122; first compound 0.01581 µM): 1
relative viability (NCI-H3122; first compound 0.05 µM): 1.07
relative viability (NCI-H3122; first compound 0.1581 µM): 1.03
relative viability (NCI-H3122; first compound 0.5 µM): 1.03
relative viability (201T; first compound 0.005 µM): 1.21
relative viability (201T; first compound 0.01581 µM): 1.17
relative viability (201T; first compound 0.05 µM): 1.22
relative viability (201T; first compound 0.1581 µM): 1.17
relative viability (201T; first compound 0.5 µM): 1.18
relative viability (LXF-289; first compound 0.005 µM): 0.916
relative viability (LXF-289; first compound 0.01581 µM): 0.942
relative viability (LXF-289; first compound 0.05 µM): 0.915
relative viability (LXF-289; first compound 0.1581 µM): 1.01
relative viability (LXF-289; first compound 0.5 µM): 0.926
relative viability (NCI-H1792; first compound 0.005 µM): 0.657
relative viability (NCI-H1792; first compound 0.01581 µM): 0.638
relative viability (NCI-H1792; first compound 0.05 µM): 0.657
relative viability (NCI-H1792; first compound 0.1581 µM): 0.505
relative viability (NCI-H1792; first compound 0.5 µM): 0.849
relative viability (NCI-H2228; first compound 0.005 µM): 1.03
relative viability (NCI-H2228; first compound 0.01581 µM): 0.891
relative viability (NCI-H2228; first compound 0.05 µM): 0.754
relative viability (NCI-H2228; first compound 0.1581 µM): 0.9
relative viability (NCI-H2228; first compound 0.5 µM): 1.24
relative viability (BEN; first compound 0.005 µM): 0.0616
relative viability (BEN; first compound 0.01581 µM): 0.0524
relative viability (BEN; first compound 0.05 µM): 0.0639
relative viability (BEN; first compound 0.5 µM): 0.0625
relative viability (RERF-LC-KJ; first compound 0.005 µM): 0.872
relative viability (RERF-LC-KJ; first compound 0.01581 µM): 0.828
relative viability (RERF-LC-KJ; first compound 0.05 µM): 1.13
relative viability (RERF-LC-KJ; first compound 0.1581 µM): 1.37
relative viability (RERF-LC-KJ; first compound 0.5 µM): 1.07
relative viability (NCI-H1395; first compound 0.005 µM): 1.14
relative viability (NCI-H1395; first compound 0.01581 µM): 1.08
relative viability (NCI-H1395; first compound 0.05 µM): 1.08
relative viability (NCI-H1395; first compound 0.1581 µM): 1.24
relative viability (NCI-H1395; first compound 0.5 µM): 0.945
relative viability (LCLC-97TM1; first compound 0.005 µM): 0.412
relative viability (LCLC-97TM1; first compound 0.01581 µM): 0.288
relative viability (LCLC-97TM1; first compound 0.1581 µM): 0.413
relative viability (LCLC-97TM1; first compound 0.5 µM): 0.425
relative viability (SK-LU-1; first compound 0.005 µM): 0.837
relative viability (SK-LU-1; first compound 0.01581 µM): 0.862
relative viability (SK-LU-1; first compound 0.05 µM): 1.1
relative viability (SK-LU-1; first compound 0.1581 µM): 0.666
relative viability (SK-LU-1; first compound 0.5 µM): 0.806
relative viability (HCC-827; first compound 0.005 µM): 1.01
relative viability (HCC-827; first compound 0.01581 µM): 1.03
relative viability (HCC-827; first compound 0.05 µM): 1.02
relative viability (HCC-827; first compound 0.1581 µM): 1.05
relative viability (HCC-827; first compound 0.5 µM): 1.03
relative viability (NCI-H727; first compound 0.005 µM): 0.343
relative viability (NCI-H727; first compound 0.01581 µM): 0.49
relative viability (NCI-H727; first compound 0.05 µM): 0.412
relative viability (NCI-H727; first compound 0.5 µM): 0.551
relative viability (NCI-H1793; first compound 0.005 µM): 0.351
relative viability (NCI-H1793; first compound 0.01581 µM): 0.466
relative viability (NCI-H1793; first compound 0.05 µM): 0.413
relative viability (NCI-H1793; first compound 0.5 µM): 0.438
relative viability (CAL-12T; first compound 0.005 µM): 1.11
relative viability (CAL-12T; first compound 0.01581 µM): 1.19
relative viability (CAL-12T; first compound 0.05 µM): 1.18
relative viability (CAL-12T; first compound 0.5 µM): 0.94
relative viability (NCI-H1437; first compound 0.005 µM): 1.06
relative viability (NCI-H1437; first compound 0.01581 µM): 1.12
relative viability (NCI-H1437; first compound 0.05 µM): 1.07
relative viability (NCI-H1437; first compound 0.1581 µM): 1.02
relative viability (NCI-H1437; first compound 0.5 µM): 1.02
relative viability (NCI-H1650; first compound 0.005 µM): 1.1
relative viability (NCI-H1650; first compound 0.01581 µM): 1.2
relative viability (NCI-H1650; first compound 0.05 µM): 1.15
relative viability (NCI-H1650; first compound 0.1581 µM): 1.28
relative viability (NCI-H1650; first compound 0.5 µM): 1.53
relative viability (NCI-H2405; first compound 0.005 µM): 0.861
relative viability (NCI-H2405; first compound 0.01581 µM): 1.09
relative viability (NCI-H2405; first compound 0.05 µM): 0.74
relative viability (NCI-H2405; first compound 0.1581 µM): 1.02
relative viability (NCI-H2405; first compound 0.5 µM): 0.498
relative viability (NCI-H2087; first compound 0.005 µM): 0.906
relative viability (NCI-H2087; first compound 0.01581 µM): 1.07
relative viability (NCI-H2087; first compound 0.05 µM): 1.06
relative viability (NCI-H2087; first compound 0.1581 µM): 0.917
relative viability (NCI-H2087; first compound 0.5 µM): 0.906
